Assay results from ChEMBL document CHEMBL2074375, “Comparison between isopropyl unoprostone and latanoprost by prostaglandin E(2)induction, affinity to prostaglandin transporter, and intraocular metabolism” (Exp Eye Res, 2002).

Target: Solute carrier organic anion transporter family member 2A1 (Homo sapiens, UniProt Q92959)
Experiment: TP_TRANSPORTER: inhibition of PGE1 uptake (PGE1: 0.0004 uM) in PGT-expressing HeLa cells
Assay type: functional, cell-based

CC(C)OC(=O)CCC/C=C\C[C@@H]1[C@@H](CC[C@@H](O)CCc2ccccc2)[C@H](O)C[C@@H]1O [LATANOPROST]
Ki: > 10000 nM

O=C(O)CCC/C=C\C[C@@H]1[C@@H](CC[C@@H](O)CCc2ccccc2)[C@H](O)C[C@@H]1O [LATANOPROST ACID]
Ki: 149 nM
